Measurements published in US10144748B1, “Anti-inflammatory zinc(II) complex” (KING SAUD UNIVERSITY, priority 2018, dated 2018).

Tested on: carrageenan-induced hind paw edema
Experiment: carrageenan-induced hind paw edema (anti-inflammatory effect in vivo)
Parameters: species or system Wistar rats
Conditions: for anti-inflammatory effect in vivo (in words): Wistar rats, 10 mg/kg; for time up to which the anti-inflammatory effect increased: after oral administration, diclofenac 4 mg/kg, Zn(II) complex 10 mg/kg, measured at 1-6 hours; for percent inhibition of inflammation (paw edema) vs control group: male Wistar rats, half an hour before carrageenan
Description: The crystalline zinc complex was evaluated for anti-inflammatory effects in vivo in Wistar rats, compared to the known NSAID diclofenac as a standard treatment.
Eighteen male Wistar rats (weighing from 200-250 g) were obtained from the “Animal Care and Use Center of College of Pharmacy at King Saud University, Riyadh, Saudi Arabia”. Institutional guidelines were followed for these studies. All rats were provided standard laboratory conditions of “temperature and relative humidity. The rats were kept in plastic cages and given free access to standard laboratory pellet diet and water ad libitum.
The anti-inflammatory studies were performed by the standard carrageenan-induced hind paw edema method of inducing acute swelling, known in the industry and widely reported in the literature. The rats were randomly divided into 3 groups of 6 rats. Group I rats were given carrageenan only, and served as control group. Group II and III rats were given standard diclofenac and the studied Zn(II) complex, respectively.
The standard diclofenac (4 mg/kg) and the Zn(II) complex (10 mg/kg) were administered orally half an hour before sub plantar injection of carrageenan in the right paw. Paw edema was induced by injecting 0.1 ml of a 1% w/v suspension of carrageenan in purified water. The initial and final paw volume of each rat was measured at regular interval of time (1, 2, 3, 4, 5 and 6 hours) after injection, using a digital Plethysmometer (Ugo Basile, Italy). The percent inhibition of edema produced by the diclofenac- and zinc(II) complex-treated groups was determined with respect to the control group, using the standard formula used with this type of test, as known in the industry and reported in the literature. The inhibition of inflammation was analyzed statistically by applying a student t-test, using the MS Excel 2010 spreadsheet program. A P value <0.05 was considered statistically significant.

Compound | anti-inflammatory effect in vivo (in words) (10 mg/kg oral) | anti-inflammatory effect in vivo (in words) (10 mg/kg oral, listed as zinc complex) | time up to which the anti-inflammatory effect increased | percent inhibition of inflammation (paw edema) vs control group (10 mg/kg oral, 6 hours post oral administration) [%] | percent inhibition of inflammation (paw edema) vs control group (4 mg/kg oral, 5 hours past oral administration) [%]
bis(chloro)-(N,N′-(2,2-dimethylpropane-1,3-diyl)bis(1-(2-chlorophenyl)methanimine))-zinc(II) complex [Zn(II) complex] | good anti-inflammatory effect | good degree of anti-inflammatory activity | about 6 hours | 56.39 | 
O=C(O)Cc1ccccc1Nc1c(Cl)cccc1Cl [diclofenac, reference compound] |  |  | about 5 hours |  | 82.31
